Experimental data from the C3SDB collision cross section collection.

Assays:
[1] = instrument: DT, stepped-field
[2] = instrument: DT, single field, calibrated with Agilent tune mix (Agilent)
[3] = instrument: DT, single field, calibrated with Agilent tune mix (Agilent); remark: listed apart in the source

Structure (SMILES) | collision cross section (N2) ([1]; [M+H]+) | collision cross section (N2) ([1]; [M+Na]+) | other results
Cn1cncc1CCN [3-Methylhistamine] | 126.53 Å² | – | collision cross section (N2) ([2]; [M+H]+): 123.8 Å²
CCCCCCCCCCCCC=CC[C@@H](O)[C@H](CO)NC(=O)CCCCCCCCCCCCCCCCCCCCCCCCC [Cer(44:1)] | – | – | collision cross section (N2) ([3]; [M+H]+): 284.8 Å²; collision cross section (N2) ([3]; [M+Na]+): 285 Å²
C[C@]12CCC(=O)C=C1CC[C@@H]1[C@@H]2CC[C@]2(C)C(=O)CC[C@@H]12 [Androstenedione] | 183.95 Å² | 204.73 Å² | collision cross section (N2) ([2]; [M+H]+): 173.3 Å²
N[C@@H](CCC(=O)N[C@@H](CS)C(=O)NCC(=O)O)C(=O)O [Glutathione] | – | 168.23 Å² | collision cross section (N2) ([2]; [M+H]+): 167.4 Å²
OC[C@H]1O[C@@H](O[C@H]2[C@H](O)[C@@H](O)[C@H](O)O[C@@H]2CO)[C@H](O)[C@@H](O)[C@H]1O [D-Lactose] | – | 178.83 Å² | collision cross section (N2) ([2]; [M+Na]+): 175.1 Å²
c1ncc2[nH]cnc2n1 [Purine] | 125.4 Å² | – | collision cross section (N2) ([2]; [M+H]+): 121.8 Å²
OC[C@H]1O[C@H](O[C@H]2[C@H](O)[C@@H](O)[C@@H](O[C@H]3[C@H](O)[C@@H](O)C(O)O[C@@H]3CO)O[C@@H]2CO)[C@H](O)[C@@H](O)[C@@H]1O (stereo not given in full) [Maltotriose] | – | 212.54 Å² | collision cross section (N2) ([2]; [M+Na]+): 212.7 Å²
C[C@]12CC[C@H]3[C@@H](CCC4=CC(=O)CC[C@@]43C)[C@@H]1CC[C@@H]2O [Testosterone] | 183.82 Å² | 206.07 Å² | collision cross section (N2) ([2]; [M+H]+): 172.7 Å²; collision cross section (N2) ([2]; [M-H]-): 175.64 Å²
CCCC[C@H](N)C(=O)O [L-Norleucine] | 142.63 Å² | – | collision cross section (N2) ([2]; [M-H]-): 129.02 Å²
CCCCC[C@H](O)/C=C/[C@H]1[C@H](O)CC(=O)[C@@H]1C/C=C\CCCC(=O)O [Prostaglandin E2] | – | 198.53 Å² | collision cross section (N2) ([2]; [M+Na]+): 196.8 Å²; collision cross section (N2) ([2]; [M-H2O-H]-): 183.57 Å²
CCCCC[C@H](O)/C=C/[C@H]1C(=O)C[C@H](O)[C@@H]1C/C=C\CCCC(=O)O [Prostaglandin D2] | – | 196.63 Å² | collision cross section (N2) ([2]; [M+Na]+): 192.4 Å²; collision cross section (N2) ([2]; [M-H2O-H]-): 186.17 Å²
C[N+](C)(C)CCOP(=O)([O-])OP(=O)(O)OC[C@H]1O[C@@H](n2ccc(N)nc2=O)[C@H](O)[C@@H]1O [Cytidine 5'-diphosphocholine] | 198.86 Å² | 208.98 Å² | collision cross section (N2) ([2]; [M+H]+): 197.6 Å²; collision cross section (N2) ([2]; [M-H]-): 200.64 Å²
O=c1c(O)c(-c2ccc(O)cc2)oc2cc(O)cc(O)c12 [Kaempferol] | 165.99 Å² | 187.2 Å² | collision cross section (N2) ([2]; [M+H]+): 162.9 Å²; collision cross section (N2) ([2]; [M-H]-): 160.32 Å²
Cn1cnc(CCN)c1 [1-Methylhistamine] | 122.56 Å² | – | collision cross section (N2) ([2]; [M+H]+): 121.3 Å²
OC[C@H]1O[C@H](OC[C@H]2O[C@H](O[C@]3(CO)O[C@H](CO)[C@@H](O)[C@@H]3O)[C@H](O)[C@@H](O)[C@@H]2O)[C@H](O)[C@@H](O)[C@H]1O [Raffinose] | – | 208.72 Å² | collision cross section (N2) ([2]; [M+H]+): 209 Å²
CC(=O)[C@H]1CC[C@H]2[C@@H]3CC=C4C[C@@H](O)CC[C@]4(C)[C@H]3CC[C@]12C [Pregnenolone] | 177.25 Å² | 216.16 Å² | collision cross section (N2) ([2]; [M+H]+): 174 Å²; collision cross section (N2) ([2]; [M-H]-): 182.86 Å²
O=c1ccn([C@@H]2O[C@H](COP(=O)(O)O)[C@@H](O)[C@H]2O)c(=O)[nH]1 [Uridine 5'-Monophosphate] | 169.81 Å² | 175.14 Å² | –
c1ccc2cc3c(cc2c1)-c1cccc2cccc-3c12 [Benzo(k)fluoranthene] | 154.36 Å² | – | –
CC(C)[C@H](N)C(=O)O [L-Valine] | 134.28 Å² | 144.07 Å² | –
Cc1ncc(CO)c(C=O)c1O [Pyridoxal] | 135.42 Å² | – | collision cross section (N2) ([2]; [M+H]+): 130.5 Å²
NC(=O)NCCC(=O)O [3-Ureidopropionic Acid] | – | 135.8 Å² | –
Cn1cnc2ncnc-2c1N [1-Methyladenine] | 128.35 Å² | – | –
CC1=CC(=O)CC(C)(C)C1(O)/C=C/C(C)=C\C(=O)O (stereo not given) [Abscisic Acid] | 160.56 Å² | 176.18 Å² | –
O=P(O)(O)OC[C@H](O)CO [sn-Glycerol 3-phosphate] | – | 142.16 Å² | –
OC[C@H]1O[C@H](OC[C@H]2O[C@H](OC[C@H]3O[C@H](O[C@]4(CO)O[C@H](CO)[C@@H](O)[C@@H]4O)[C@H](O)[C@@H](O)[C@@H]3O)[C@H](O)[C@@H](O)[C@H]2O)[C@H](O)[C@@H](O)[C@H]1O [Stachyose] | – | 236.4 Å² | collision cross section (N2) ([2]; [M+Na]+): 234.1 Å²; collision cross section (N2) ([2]; [M-H]-): 221.12 Å²
CN(C)[C@@H]1C(=O)C(C(N)=O)=C(O)[C@@]2(O)C(=O)C3=C(O)c4c(O)cccc4[C@@](C)(O)[C@H]3C[C@@H]12 [Tetracycline] | 198.48 Å² | 212.5 Å² | –
C[C@@H]1NC(=O)N[C@@H]1CCCCCC(=O)O [d-Desthiobiotin] | 145.78 Å² | 159.12 Å² | –

Structure (SMILES) | collision cross section (N2) ([1]; [M+H]+) | collision cross section (N2) ([1]; [M+Na]+) | other results
O=C(O)[C@@H](O)[C@@H](O)[C@@H](O)CO [L-Ribonic Acid] | – | 143.47 Å² | –
N[C@H]1C(O)O[C@H](CO)[C@@H](O)[C@@H]1O (stereo partly drawn) [D-Glucosamine] | 135.59 Å² | 147.19 Å² | –
CCCC(=O)C(=O)O [2-Oxovaleric Acid] | – | 131.64 Å² | –
Cn1cnc2[nH]c(N)nc(=O)c21 [7-Methylguanine] | 134.33 Å² | 149.72 Å² | –
Cc1cc2nc3c(=O)[nH]c(=O)nc-3n(C[C@H](O)[C@H](O)[C@H](O)COP(=O)(O)O)c2cc1C [Riboflavin 5'-Monophosphate] | 201.48 Å² | 210.66 Å² | –
C[N+](C)(C)CCCC(=O)[O-] [Deoxycarnitine] | 130.4 Å² | – | –
NCCC[C@H](N)C(=O)O [L-Ornithine] | 129.79 Å² | – | –
OC[C@H]1O[C@H](OC[C@H]2OC(O)[C@H](O)[C@@H](O)[C@@H]2O)[C@H](O)[C@@H](O)[C@@H]1O (stereo not given in full) [Isomaltose] | – | 178.02 Å² | collision cross section (N2) ([2]; [M+Na]+): 177.3 Å²; collision cross section (N2) ([2]; [M-H]-): 171.96 Å²
Oc1cc(O)c2c(c1)O[C@H](c1ccc(O)c(O)c1)[C@@H](O)C2 [Catechin] | 165.18 Å² | 184.42 Å² | –
CCCCC/C=C\C[C@@H](O)/C=C/C=C\C/C=C\CCCC(=O)O [12R-HETE] | – | 194.4 Å² | –
O=C(O)CNC(=O)c1ccccc1O [2-Hydroxy Hippuric Acid] | – | 154.87 Å² | –
OC[C@H]1O[C@@H](O[C@@H]2[C@@H](CO)O[C@](O)(CO)[C@H]2O)[C@H](O)[C@@H](O)[C@H]1O [Lactulose] | – | 180.1 Å² | –
CCCCC/C=C\C/C=C\C/C=C\C=C\[C@@H](O)CCCC(=O)O [5S-HETE] | – | 188.21 Å² | –
O=c1c(-c2ccc(O)cc2)coc2cc(O)ccc12 [Daidzein] | 157.23 Å² | 173.13 Å² | –
CCCCC[C@H](O)/C=C/[C@H]1OC(O)C[C@H](O)[C@@H]1C/C=C\CCCC(=O)O (stereo not given in full) [Thromboxane B2] | – | 202.08 Å² | –
C[Se]CC[C@H](N)C(=O)O [L-Selenomethionine] | 137.67 Å² | – | –
CC(C)[C@]12CC(=O)[C@H](C)[C@H]1C2 [Thujone] | 141.82 Å² | – | –
Cc1cn([C@H]2C[C@H](O)[C@@H](CO)O2)c(=O)[nH]c1=O [Thymidine] | – | 164.51 Å² | collision cross section (N2) ([2]; [M+Na]+): 161 Å²; collision cross section (N2) ([2]; [M-H]-): 151.22 Å²
OC[C@H]1O[C@H](OC[C@H]2O[C@H](OC[C@H]3OC(O)[C@H](O)[C@@H](O)[C@@H]3O)[C@H](O)[C@@H](O)[C@@H]2O)[C@H](O)[C@@H](O)[C@@H]1O (stereo not given in full) [Isomaltotriose] | – | 210.83 Å² | –
Cc1ncc(CO)c(CO)c1O [Pyridoxine] | 135.69 Å² | 148.49 Å² | collision cross section (N2) ([2]; [M+H]+): 134.6 Å²; collision cross section (N2) ([2]; [M-H]-): 130.75 Å²
COc1ccc2c(c1)c(CC(=O)O)c(C)n2C(=O)c1ccc(Cl)cc1 [Indomethacin] | 183.55 Å² | 195.98 Å² | –
COC(=O)c1c(Cl)nn(C)c1S(=O)(=O)NC(=O)Nc1nc(OC)cc(OC)n1 [Halosulfuron-methyl] | 196.48 Å² | 201.41 Å² | –
O=c1cc(-c2ccc(O)c(-c3c(O)cc(O)c4c(=O)cc(-c5ccc(O)cc5)oc34)c2)oc2cc(O)cc(O)c12 [Amentoflavone] | 230.16 Å² | – | –
N[C@@H](CSCC(=O)O)C(=O)O [S-Carboxymethyl-L-cysteine] | 141.13 Å² | 142.13 Å² | collision cross section (N2) ([2]; [M+H]+): 137.2 Å²
O=C1c2ccccc2-c2cccc3cccc1c23 [Benzanthrone] | 145.71 Å² | – | –
COc1ccc([C@@H]2CC(=O)c3c(O)cc(O)cc3O2)cc1O [Hesperetin] | 176.54 Å² | 184.45 Å² | –
